Measurements from patent publication US20080262080A1, “Allergy Suppressive Agent” (KYUSHU UNIVERSITY, NATIONAL UNIVERSITY CORPORATION, priority 2004, published 2008).

Experiments:
[1] = tested on: FcεRI α- and γ-chains mRNA; assay: mRNA transcription level of FcεRI α- and γ-chains in KU812 cells (RT-PCR, Southern hybridization); type: cell-based, human; conditions: serum-free, G3PDH control
Method: The mRNA expression of each of the FcεRI α- and γ-chains was detected by RT-PCR and southern hybridization using specific probes. G3PDH (glyceraldehyde-3-phosphate dehydrogenase) was employed as a control.
KU812 cells (1×10^6 cells/mL) were incubated under serum-free conditions in RPMI 1640 medium to which chrysin had been added. After incubating, the cells were washed with PBS once and then completely lysed by adding 1 mL of Trizol (Invitrogen) per 1×10^7 cells and quickly suspending. After allowing to stand at room temperature for 5 min, 0.2 mL of chloroform was added and the mixture was vigorously stirred and overturned. […] The concentration of the total RNA diluted 50-fold with water was measured using a wavelength of 260 nm. […]
The PCR mixture was prepared by mixing 1 μL of the cDNA, 0.8 μL of 2 mM dNTP, 0.6 μL of MgCl2, 0.5 μL of […] sense primer, 0.5 μL of 20 μM antisense primer, 0.1 μL of Taq DNA polymerase (Fermentas) and 1 μL of 10× Taq buffer accompanying Taq DNA polymerase and adjusting the total volume to 10 μL with distilled water. […] Next, amplification was conducted in 13 to 15 cycles (each cycle consisting of 1 min at 95° C., 1 min at 60° C. and 1 min at 72° C. The PCR product was electrophoresed on a 1% agarose gel and the amplified DNA was detected by Southern blotting. […]

[2] = tested on: STAT6; assay: Chrysin intake test: STAT6 phosphorylation in spleen lymphocytes of orally dosed mice; type: in vivo, mouse
Method: Spleen lymphocytes collected from mice, to which chrysin had been orally administered continuously, were stimulated with LPS or LPS+IL-4 (500 U/ml) and phosphorylated STAT6 was detected by immunoprecipitation using anti-STAT6 antibody and immunoblotting. 200 μL portions of 0.4 mg/mL chrysin and 200 μL portions of 1% DMSO in 1% EtOH were administered respectively to groups (n=8) in accordance with the following administration schedule. To male C57BL/6N mice aged 5 weeks that had been preliminarily fed (MF feed) for 1 week, the samples were administered once every 2 days for 2 weeks (7 times in total; total dose: 0.56 mg (28 mg/kg) per animal). After sacrificing, spleen lymphocytes were collected from the spleen of each mouse, adjusted to a density of 2×10^7 cells/mL and stimulated with 25 μg/mL of lipopolysaccharide (LPS) or LPS+IL-4 (500 U/mL) for 30 min. Then, the cells were lysed and phosphorylated STAT6 was detected by immunoprecipitation with the use of anti-STAT6 antibody and immunoblotting to thereby examine the response to IL-4.

[3] = tested on: blood cytokine levels; assay: Blood cytokine levels of OVA-sensitized mice after chrysin intake (Mouse Cytokine Array); type: in vivo
Source text: Blood was collected as in Example 6 and 32 kinds of cytokines (6 Ckine, CTACK, Eotaxin, G-CSF, GM-CSF, IL-2, IL-3, Il-4, IL-5, Il-6, IL-9, IL-10, IL-12, IL-12p70, IL-13, IL-17, IFN-γ, KC, Leptin, MCP-1, MCP-5, MIP-1α, MIP-2, MIP-3β, RANTES, SCF, sTNFRI, TARC, TIMP-1, TNF-α, Tpo and VEGF) were detected using Ray Bio™ Mouse Cytokine Array (Ray Biotech, Inc.).

With O=c1cc(-c2ccccc2)oc2cc(O)cc(O)c12 [Chrysin, 5,7-dihydroxyflavone] the “expression of FcεRI at the mRNA level” value [1] was “suppressed”, the “phosphorylation of STAT6 by the stimulus with LPS+IL-4” value ([2]; C57BL/6N mice, oral chrysin once every 2 days for 2 weeks, total 28 mg/kg, spleen lymphocytes, LPS+IL-4 (500 U/mL) 30 min, vs control system) was “suppressed” and the “oral dose at which chrysin is efficacious as an antiallergic agent” value ([2]; male adults having an average body weight of 60 kg (28 mg/kg)) was ≥ 1.68 g/day. For the same molecule, the “IL-4 level after taking chrysin” value ([3]; in words) was “lower than the detection limit”, the “blood levels of G-CSF, GM-CSF, leptin and TNF-α” value ([3]; in words) was “tendency toward increase” and the “cytokine levels of 26 of the 32 kinds of cytokines” value ([3]; in words) was “no change”. For the same molecule, the “G-CSF blood level, relative value” ([3]; non-intake group = 1) was 2.43, the “GM-CSF blood level, relative value” ([3]; non-intake group = 1) was 1.68 and the “IL-4 blood level, relative value” ([3]; non-intake group = 1) was 0. For the same molecule, the “Leptin blood level, relative value” ([3]; non-intake group = 1) was 1.25, the “MCP-1 blood level, relative value” ([3]; non-intake group = 1) was 0.49 and the “TNF-α blood level, relative value” ([3]; non-intake group = 1) was 2.17.
